The values below come from patent US20250282799A1, “SUBSTITUTED PYRIDO[4,3-d]PYRIMIDINES AS KRAS MODULATORS” (Alterome Therapeutics, Inc., priority 2023, published 2025).

This assay concerns KRAS G12V dependent lung adenocarcinoma cell line, NCI-H441. Kind of assay: Cellular pERK (Thr202/Tyr204) FRET/HTRF assay. The class given is cell-based. The settings on record: Homo sapiens, NCI-H441, cellular pERK (Thr202/Tyr204) HTRF, NCI-H441 cells. The method in brief:
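NCI-H441, overnight plating → cpd 1 hr, 37 °C/5% CO2; DMSO neg ctrl. Lyse (phosphatase inhibitors), add donor/acceptor Abs, RT incubation, HTRF read. IC50 by curve fit.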
`[2H]C([2H])(F)Oc1c(F)ccc2cc(N)cc(-c3ncc4c(N5CCOC[C@H]6[C@H](F)[C@H]65)nc(OC[C@]56CC(=C)CN5CCC65CC5)nc4c3F)c12` [Example 387, 6-fluoro-4-(8-fluoro-4-((1S,7S,8S)-8-fluoro-5-oxa-2-azabicyclo[5.1.0]octan-2-yl)-2-(((R)-6′-methylenetetrahydrospiro[cyclopropane-1,1′-pyrrolizin]-7a′(5′H)-yl)methoxy)pyrido[4,3-d]pyrimidin-7-yl)-5-(fluoromethoxy-d2)naphthalen-2-amine] displayed an IC50 below 50 nM.

Take `[2H]C([2H])(F)Oc1c(F)ccc2cc(N)cc(-c3ncc4c(N5CCOC[C@H]6[C@H](F)[C@H]65)nc(OC[C@]56C/C(=C\F)CN5CCC65CC5)nc4c3F)c12` [Example 388, 6-fluoro-4-(8-fluoro-4-((1S,7S,8S)-8-fluoro-5-oxa-2-azabicyclo[5.1.0]octan-2-yl)-2-(((R,E)-6′-(fluoromethylene)tetrahydrospiro[cyclopropane-1,1′-pyrrolizin]-7a′(5′H)-yl)methoxy)pyrido[4,3-d]pyrimidin-7-yl)-5-(fluoromethoxy-d2)naphthalen-2-amine]: the 50% inhibitory concentration (IC50) was below 50 nM.

With `[2H]C([2H])(F)Oc1c(F)ccc2cc(N)cc(-c3ncc4c(N5CCOC[C@H]6[C@H](F)[C@H]65)nc(OC[C@]56C/C(=C/F)CN5CCC65CC5)nc4c3F)c12` [Example 389, 6-fluoro-4-(8-fluoro-4-((1S,7S,8S)-8-fluoro-5-oxa-2-azabicyclo[5.1.0]octan-2-yl)-2-(((R,Z)-6′-(fluoromethylene)tetrahydrospiro[cyclopropane-1,1′-pyrrolizin]-7a′(5′H)-yl)methoxy)pyrido[4,3-d]pyrimidin-7-yl)-5-(fluoromethoxy-d2)naphthalen-2-amine], the 50% inhibitory concentration (IC50) is below 50 nM.

The molecule `C=C1CN2CCC[C@@]2(COc2nc(N3CCCC[C@H]4[C@H](F)[C@H]43)c3cnc(-c4cc(N)c(F)c(C)c4C(F)(F)F)c(F)c3n2)C1` [Example 392, 2-fluoro-5-(8-fluoro-4-((1S,7R,8S)-8-fluoro-2-azabicyclo[5.1.0]octan-2-yl)-2-(((S)-2-methylenetetrahydro-1H-pyrrolizin-7a(5H)-yl)methoxy)pyrido[4,3-d]pyrimidin-7-yl)-3-methyl-4-(trifluoromethyl)aniline] had an IC50 of 50 to 500 nM.

`C=C1CN2CCC[C@@]2(COc2nc(N3CCCC[C@@H]4[C@@H](F)[C@@H]43)c3cnc(-c4cc(N)c(F)c(C)c4C(F)(F)F)c(F)c3n2)C1` [Example 393, 2-fluoro-5-(8-fluoro-4-((1R,7S,8R)-8-fluoro-2-azabicyclo[5.1.0]octan-2-yl)-2-(((S)-2-methylenetetrahydro-1H-pyrrolizin-7a(5H)-yl)methoxy)pyrido[4,3-d]pyrimidin-7-yl)-3-methyl-4-(trifluoromethyl)aniline]: the IC50 is 500 to 10000 nM.

`Cc1c(F)c(N)cc(-c2ncc3c(N4CCCC[C@H]5[C@H](F)[C@H]54)nc(OC[C@@]45CCCN4CC(=C(F)F)C5)nc3c2F)c1C(F)(F)F` [Example 394, 5-(2-(((S)-2-(difluoromethylene)tetrahydro-1H-pyrrolizin-7a(5H)-yl)methoxy)-8-fluoro-4-((1S,7R,8S)-8-fluoro-2-azabicyclo[5.1.0]octan-2-yl)pyrido[4,3-d]pyrimidin-7-yl)-2-fluoro-3-methyl-4-(trifluoromethyl)aniline] yielded a half-maximal inhibitory concentration (IC50) of 500 to 10000 nM.

For `Cc1c(F)c(N)cc(-c2ncc3c(N4CCCC[C@@H]5[C@@H](F)[C@@H]54)nc(OC[C@@]45CCCN4CC(=C(F)F)C5)nc3c2F)c1C(F)(F)F` [Example 395, 5-(2-(((S)-2-(difluoromethylene)tetrahydro-1H-pyrrolizin-7a(5H)-yl)methoxy)-8-fluoro-4-((1R,7S,8R)-8-fluoro-2-azabicyclo[5.1.0]octan-2-yl)pyrido[4,3-d]pyrimidin-7-yl)-2-fluoro-3-methyl-4-(trifluoromethyl)aniline], the IC50 was in the range of 500 to 10000 nM.

As to `Cc1c(F)c(N)cc(-c2ncc3c(N4CCCC[C@H]5[C@H](F)[C@H]54)nc(OC[C@@]45CCCN4C/C(=C/F)C5)nc3c2F)c1C(F)(F)F` [Example 396, 2-fluoro-5-(8-fluoro-4-((1S,7R,8S)-8-fluoro-2-azabicyclo[5.1.0]octan-2-yl)-2-(((S,E)-2-(fluoromethylene)tetrahydro-1H-pyrrolizin-7a(5H)-yl)methoxy)pyrido[4,3-d]pyrimidin-7-yl)-3-methyl-4-(trifluoromethyl)aniline], the IC50 was 500 to 10000 nM.

For the molecule `Cc1c(F)c(N)cc(-c2ncc3c(N4CCCC[C@@H]5[C@@H](F)[C@@H]54)nc(OC[C@@]45CCCN4C/C(=C/F)C5)nc3c2F)c1C(F)(F)F` [Example 397, 2-fluoro-5-(8-fluoro-4-((1R,7S,8R)-8-fluoro-2-azabicyclo[5.1.0]octan-2-yl)-2-(((S,E)-2-(fluoromethylene)tetrahydro-1H-pyrrolizin-7a(5H)-yl)methoxy)pyrido[4,3-d]pyrimidin-7-yl)-3-methyl-4-(trifluoromethyl)aniline], the IC50 was 500 to 10000 nM.

`Cc1c(F)c(N)cc(-c2ncc3c(N4CCCC[C@H]5[C@H](F)[C@H]54)nc(OC[C@@]45CCCN4C/C(=C\F)C5)nc3c2F)c1C(F)(F)F` [Example 398, 2-fluoro-5-(8-fluoro-4-((1S,7R,8S)-8-fluoro-2-azabicyclo[5.1.0]octan-2-yl)-2-(((S,Z)-2-(fluoromethylene)tetrahydro-1H-pyrrolizin-7a(5H)-yl)methoxy)pyrido[4,3-d]pyrimidin-7-yl)-3-methyl-4-(trifluoromethyl)aniline] had an IC50 of 50 to 500 nM.

`Cc1c(F)c(N)cc(-c2ncc3c(N4CCCC[C@@H]5[C@@H](F)[C@@H]54)nc(OC[C@@]45CCCN4C/C(=C\F)C5)nc3c2F)c1C(F)(F)F` [Example 399, 2-fluoro-5-(8-fluoro-4-((1R,7S,8R)-8-fluoro-2-azabicyclo[5.1.0]octan-2-yl)-2-(((S,Z)-2-(fluoromethylene)tetrahydro-1H-pyrrolizin-7a(5H)-yl)methoxy)pyrido[4,3-d]pyrimidin-7-yl)-3-methyl-4-(trifluoromethyl)aniline] returned an IC50 of 500 to 10000 nM.

As to `[2H]C([2H])(Oc1nc(N2CCOC[C@H]3[C@H](F)[C@H]32)c2c(O)nc(-c3cc(N)cc4ccc(F)c(C#C)c34)c(F)c2n1)[C@@]12CCCN1C[C@H](F)C2` [Example 401, 7-(3-amino-8-ethynyl-7-fluoronaphthalen-1-yl)-8-fluoro-4-((1S,7S,8S)-8-fluoro-5-oxa-2-azabicyclo[5.1.0]octan-2-yl)-2-(((2R,7aS)-2-fluorotetrahydro-1H-pyrrolizin-7a(5H)-yl)methoxy-d2)pyrido[4,3-d]pyrimidin-5-ol], the half-inhibitory concentration (IC50) fell in the range of 500 to 10000 nM.

`C#Cc1c(F)ccc2cccc(-c3ncc4c(N5CCCC[C@H]6[C@H](F)[C@H]65)nc(OC[C@]56C/C(=C/F)CN5CCC65CC5)nc4c3F)c12` [Example 402, (R,Z)-7a′-(((7-(8-Ethynyl-7-fluoronaphthalen-1-yl)-8-fluoro-4-((1S,7R,8S)-8-fluoro-2-azabicyclo[5.1.0]octan-2-yl)pyrido[4,3-d]pyrimidin-2-yl)oxy)methyl)-6′-(fluoromethylene)hexahydrospiro[cyclopropane-1,1′-pyrrolizine]]: the IC50 was below 50 nM.

Take `C#Cc1c(F)ccc2cc(N)cc(-c3ncc4c(N5CCCC[C@H]6[C@H](F)[C@H]65)nc(OC[C@]56C/C(=C\F)CN5CCC65CC5)nc4c3F)c12` [Example 403, 5-Ethynyl-6-fluoro-4-(8-fluoro-4-((1S,7R,8S)-8-fluoro-2-azabicyclo[5.1.0]octan-2-yl)-2-(((R,E)-6′-(fluoromethylene)tetrahydrospiro[cyclopropane-1,1′-pyrrolizin]-7a′(5′H)-yl)methoxy)pyrido[4,3-d]pyrimidin-7-yl)naphthalen-2-amine]: the IC50 was below 50 nM.

The molecule `C#Cc1c(F)ccc2cc(N)cc(-c3ncc4c(N5CCCC[C@H]6[C@H](F)[C@H]65)nc(OC[C@]56C/C(=C/F)CN5CCC65CC5)nc4c3F)c12` [Example 404, 5-Ethynyl-6-fluoro-4-(8-fluoro-4-((1S,7R,8S)-8-fluoro-2-azabicyclo[5.1.0]octan-2-yl)-2-(((R,Z)-6′-(fluoromethylene)tetrahydrospiro[cyclopropane-1,1′-pyrrolizin]-7a′(5′H)-yl)methoxy)pyrido[4,3-d]pyrimidin-7-yl)naphthalen-2-amine] displayed a concentration for half-maximal inhibition (IC50) below 50 nM.

On to `C#Cc1c(F)ccc2cccc(-c3ncc4c(N5CCCC[C@H]6[C@H](F)[C@H]65)nc(OC[C@]56CC(=C(F)F)CN5CCC65CC5)nc4c3F)c12` [Example 405, (R)-6′-(Difluoromethylene)-7a′-(((7-(8-ethynyl-7-fluoronaphthalen-1-yl)-8-fluoro-4-((1S,7R,8S)-8-fluoro-2-azabicyclo[5.1.0]octan-2-yl)pyrido[4,3-d]pyrimidin-2-yl)oxy)methyl)hexahydrospiro[cyclopropane-1,1′-pyrrolizine]], for which the IC50 is below 50 nM.

`Nc1cc(Cl)c(C(F)(F)F)c(-c2ncc3c(N4CCCC[C@H]5[C@H](F)[C@H]54)nc(OC[C@]45C/C(=C/F)CN4CCC54CC4)nc3c2F)c1` [Example 406, 3-chloro-5-(8-fluoro-4-((1S,7R,8S)-8-fluoro-2-azabicyclo[5.1.0]octan-2-yl)-2-(((R,Z)-6′-(fluoromethylene)tetrahydrospiro [cyclopropane-1,1′-pyrrolizin]-7a′(5′H)-yl)methoxy)pyrido[4,3-d]pyrimidin-7-yl)-4-(trifluoromethyl)aniline]: the IC50 is below 50 nM.

With `[2H]C([2H])(F)Oc1c(F)ccc2cccc(-c3ncc4c(N5CCCC[C@H]6[C@H](F)[C@H]65)nc(OC[C@]56CC(=C)CN5CCC65CC5)nc4c3F)c12` [Example 407, (R)-7a′-(((8-fluoro-7-(7-fluoro-8-(fluoromethoxy-d2)naphthalen-1-yl)-4-((1S,7R,8S)-8-fluoro-2-azabicyclo[5.1.0]octan-2-yl)pyrido[4,3-d]pyrimidin-2-yl)oxy)methyl)-6′-methylenehexahydrospiro[cyclopropane-1,1′-pyrrolizine]], the half-inhibitory concentration (IC50) is below 50 nM.
